Experimental data published in US9212163B2, “Pesticidal compositions and processes related thereto” (Dow AgroSciences LLC, priority 2012, dated 2015).

Test system: Beet Armyworm (BAW) (Spodoptera exigua)
Test: Bioassay on Beet Armyworm (BAW), 128-well diet tray assay
Type: in vivo
Settings: Table 3: Assay Results Part 1
Method: Certain molecules disclosed in this document were tested against BAW, CEW and CL using procedures described in the following examples. In the reporting of the results, the “BAW & CEW & CL Rating Table” was used (See Table Section).
Bioassays on BAW (Spodoptera exigua)
Bioassays on BAW were conducted using a 128-well diet tray assay. One to five second instar BAW larvae were placed in each well (3 mL) of the diet tray that had been previously filled with 1 mL of artificial diet to which 50 μg/cm^2 of the test compound (dissolved in 50 μL of 90:10 acetone-water mixture) had been applied (to each of eight wells) and then allowed to dry. Trays were covered with a clear self-adhesive cover, and held at 25° C., 14:10 light-dark for five to seven days. Percent mortality was recorded for the larvae in each well; activity in the eight wells was then averaged. The results are indicated in the tables entitled “Table 3: Assay Results Part 1” and “Table 4: Assay Results Part 2” (See Table Section).

| SMILES | BAW Rating |
| --- | --- |
| O=C(CC(F)(F)F)NCC(=O)n1ccc2cc(/C=C/C(c3cc(Cl)c(F)c(Cl)c3)C(F)(F)F)ccc21 (stereo not shown) [BC13, (E)-N-(2-(5-(3-(3,5-Dichloro-4-fluorophenyl)-4,4,4-trifluorobut-1-en-1-yl)-1H-indol-1-yl)-2-oxoethyl)-3,3,3-trifluoropropanamide] | A (50-100) |
| O=C(Cn1ncc2cc(/C=C/C(c3cc(Cl)c(F)c(Cl)c3)C(F)(F)F)ccc2c1=O)NCC(F)(F)F (stereo not shown) [BC14, (E)-2-(6-(3-(3,5-Dichloro-4-fluorophenyl)-4,4,4-trifluorobut-1-en-1-yl)-1-oxophthalazin-2(1H)-yl)-N-(2,2,2-trifluoroethyl)acetamide] | A (50-100) |
| O=C(NCc1ccc(/C=C/C(c2cc(Cl)cc(Cl)c2)C(F)(F)F)cc1)C1CC1 (stereo not shown) [CC2] | A (50-100) |
| O=C(CC(F)(F)F)NCc1ccc(/C=C/C(c2cc(Cl)cc(Cl)c2)C(F)(F)F)cc1 (stereo not shown) [CC3] | A (50-100) |
| CCC(=O)NCc1ccc(/C=C/C(c2cc(Cl)cc(Cl)c2)C(F)(F)F)cc1 (stereo not shown) [CC4] | A (50-100) |
| O=C(NCc1ccc(/C=C/C(c2cc(Cl)c(Cl)c(Cl)c2)C(F)(F)F)cc1)C1CC1 (stereo not shown) [CC5] | A (50-100) |
| O=C(CC(F)(F)F)NCc1ccc(/C=C/C(c2cc(Cl)c(Cl)c(Cl)c2)C(F)(F)F)cc1 (stereo not shown) [CC6] | A (50-100) |
| CC(=O)NCc1ccc(/C=C/C(c2cc(Cl)cc(Cl)c2)C(F)(F)F)cc1Cl (stereo not shown) [CC7, (E)-N-(2-Chloro-4-(3-(3,5-dichlorophenyl)-4,4,4-trifluorobut-1-en-1-yl)benzyl)acetamide] | A (50-100) |
| O=C(NCc1ccc(/C=C/C(c2cc(Cl)cc(Cl)c2)C(F)(F)F)cc1Cl)C1CC1 (stereo not shown) [CC8] | A (50-100) |
| O=C(CC(F)(F)F)NCc1ccc(/C=C/C(c2cc(Cl)cc(Cl)c2)C(F)(F)F)cc1Cl (stereo not shown) [CC9] | A (50-100) |
| O=C(NCc1ccc(/C=C/C(c2cc(Cl)c(Cl)c(Cl)c2)C(F)(F)F)cc1Cl)C1CC1 (stereo not shown) [CC11] | A (50-100) |
| O=C(Cc1ccc(Cl)nc1)NCc1ccc(/C=C/C(c2cc(Cl)c(Cl)c(Cl)c2)C(F)(F)F)cc1Cl (stereo not shown) [CC14] | A (50-100) |
| O=C(NCc1ccc(/C=C/C(c2cc(Cl)c(F)c(Cl)c2)C(F)(F)F)cc1Cl)C1CC1 (stereo not shown) [CC15] | A (50-100) |
| O=C(NCc1ccc(/C=C/C(c2ccc(Cl)c(Cl)c2)C(F)(F)F)cc1Cl)C1CC1 (stereo not shown) [CC17] | A (50-100) |
| O=C(CC(F)(F)F)NCc1ccc(/C=C/C(c2ccc(Cl)c(Cl)c2)C(F)(F)F)cc1Cl (stereo not shown) [CC18] | A (50-100) |
| CSCCC(=O)NCc1ccc(/C=C/C(c2cc(Cl)c(Cl)c(Cl)c2)C(F)(F)F)cc1Cl (stereo not shown) [CC19] | A (50-100) |
| FC(F)(F)C(/C=C/c1ccc(CNC(=S)C2CC2)c(Cl)c1)c1cc(Cl)c(Cl)c(Cl)c1 (stereo not shown) [CC20] | A (50-100) |
| O=C(NCc1ccc(/C=C/C(c2cc(Cl)cc(Cl)c2)C(F)(F)F)cc1C(F)(F)F)C1CC1 (stereo not shown) [CC21] | A (50-100) |
| O=C(NCc1ccc(/C=C/C(c2cc(Cl)c(Cl)c(Cl)c2)C(F)(F)F)cc1C(F)(F)F)C1CC1 (stereo not shown) [CC22] | A (50-100) |
| O=C(NCc1ccc(/C=C/C(c2cc(Cl)c(Cl)c(Cl)c2)C(F)(F)F)cc1C(F)(F)F)c1cccnc1 (stereo not shown) [CC23] | A (50-100) |
| O=C(CC(F)(F)F)NCc1ccc(/C=C/C(c2cc(Cl)c(Cl)c(Cl)c2)C(F)(F)F)cc1C(F)(F)F (stereo not shown) [CC24] | A (50-100) |
| O=C(CC(F)(F)F)NCc1ccc(/C=C/C(c2cc(Cl)c(Cl)c(Cl)c2)C(F)(F)F)cc1Br (stereo not shown) [CC25] | A (50-100) |
| O=C(NCc1ccc(/C=C/C(c2cc(Cl)c(Cl)c(Cl)c2)C(F)(F)F)cc1Br)C1CC1 (stereo not shown) [CC26] | A (50-100) |
| O=C(CC(F)(F)F)NCc1ccc(/C=C/C(c2cc(Cl)c(Cl)c(Cl)c2)C(F)(F)F)cc1F (stereo not shown) [CC27] | A (50-100) |
| O=C(NCc1ccc(/C=C/C(c2cc(Cl)c(Cl)c(Cl)c2)C(F)(F)F)cc1F)C1CC1 (stereo not shown) [CC28] | A (50-100) |

| SMILES | BAW Rating |
| --- | --- |
| O=C(C1CC1)N(Cc1ccccn1)Cc1ccc(/C=C/C(c2cc(Cl)c(Cl)c(Cl)c2)C(F)(F)F)cc1C(F)(F)F (stereo not shown) [CC29, (E)-N-(Pyridin-2-ylmethyl)-N-(4-(4,4,4-trifluoro-3-(3,4,5-trichlorophenyl)but-1-enyl)-2-(trifluoromethyl)benzyl)cyclopropanecarboxamide] | A (50-100) |
| CS(=O)(=O)CCC(=O)NCc1ccc(/C=C/C(c2cc(Cl)c(Cl)c(Cl)c2)C(F)(F)F)cc1Cl (stereo not shown) [CC30, (E)-N-(2-Chloro-4-(4,4,4-trifluoro-3-(3,4,5-trichlorophenyl)but-1-en-1-yl)benzyl)-3-(methylsulfonyl)propanamide] | A (50-100) |
| CCNC(=O)NCc1ccc(/C=C/C(c2cc(Cl)cc(Cl)c2)C(F)(F)F)cc1Cl (stereo not shown) [CC31, (E)-1-(2-Chloro-4-(3-(3,5-dichlorophenyl)-4,4,4-trifluorobut-1-en-1-yl)benzyl)-3-ethylurea] | B (More than 0-Less than 50) |
| CCNC(=O)NCc1ccc(/C=C/C(c2cc(Cl)c(Cl)c(Cl)c2)C(F)(F)F)cc1C(F)(F)F (stereo not shown) [CC32] | A (50-100) |
| CCNC(=O)NCc1ccc(/C=C/C(c2cc(Cl)c(Cl)c(Cl)c2)C(F)(F)F)cc1Br (stereo not shown) [CC33] | A (50-100) |
| O=C(NCc1ccc(/C=C/C(c2cc(Cl)c(Cl)c(Cl)c2)C(F)(F)F)cc1Cl)N1CCOCC1 (stereo not shown) [CC34] | A (50-100) |
| CN(C)C(=O)NCc1ccc(/C=C/C(c2cc(Cl)c(Cl)c(Cl)c2)C(F)(F)F)cc1Cl (stereo not shown) [CC36, (E)-3-(2-Chloro-4-(4,4,4-trifluoro-3-(3,4,5-trichlorophenyl)but-1-en-1-yl)benzyl)-1,1-dimethylurea] | A (50-100) |
| CCNC(=S)NCc1ccc(/C=C/C(c2cc(Cl)c(Cl)c(Cl)c2)C(F)(F)F)cc1Cl (stereo not shown) [CC37, (E)-1-(2-Chloro-4-(4,4,4-trifluoro-3-(3,4,5-trichlorophenyl)but-1-en-1-yl)benzyl)-3-ethylthiourea] | A (50-100) |
| C=CCNC(=S)NCc1ccc(/C=C/C(c2cc(Cl)c(Cl)c(Cl)c2)C(F)(F)F)cc1Cl (stereo not shown) [CC38] | A (50-100) |
| FC(F)(F)C(/C=C/c1ccc(CNc2ccccn2)c(Cl)c1)c1cc(Cl)c(Cl)c(Cl)c1 (stereo not shown) [CC43, (E)-N-(2-Chloro-4-(4,4,4-trifluoro-3-(3,4,5-trichlorophenyl)but-1-en-1-yl)benzyl)pyridin-2-amine] | A (50-100) |
| O=C(CC(F)(F)F)NCc1ncc(/C=C/C(c2cc(Cl)c(Cl)c(Cl)c2)C(F)(F)F)cc1Cl (stereo not shown) [CC44, (E)-N-((3-Chloro-5-(4,4,4-trifluoro-3-(3,4,5-trichlorophenyl)-but-1-en-1-yl)pyridin-2-yl)methyl)-3,3,3-trifluoropropanamide] | A (50-100) |
| O=C(NCc1ncc(/C=C/C(c2cc(Cl)c(Cl)c(Cl)c2)C(F)(F)F)cc1Cl)C1CC1 (stereo not shown) [CC45] | A (50-100) |
| O=C(NNc1ccc(/C=C/C(c2cc(Cl)c(Cl)c(Cl)c2)C(F)(F)F)cc1)C1CC1 (stereo not shown) [CC50, (E)-N′-(4-(4,4,4-Trifluoro-3-(3,4,5-trichlorophenyl)but-1-en-1-yl)phenyl)cyclopropanecarbohydrazide] | A (50-100) |
| O=C(CC(F)(F)F)NNc1ccc(/C=C/C(c2cc(Cl)c(Cl)c(Cl)c2)C(F)(F)F)cc1 (stereo not shown) [CC51] | A (50-100) |
| O=C(NOc1ccc(/C=C/C(c2cc(Cl)c(Cl)c(Cl)c2)C(F)(F)F)cc1)C1CC1 (stereo not shown) [CC52, (E)-N-(4-(4,4,4-Trifluoro-3-(3,4,5-trichlorophenyl)but-1-en-1-yl)phenoxy)cyclopropanecarboxamide] | A (50-100) |
| O=C(CC(F)(F)F)NCc1ccc(/C=C\C(c2cc(Cl)c(Cl)c(Cl)c2)C(F)(F)F)cc1 (stereo not shown) [CC54, (Z)-3,3,3-Trifluoro-N-(4-(4,4,4-trifluoro-3-(3,4,5-trichlorophenyl)but-1-en-1-yl)benzyl)propanamide] | A (50-100) |
| FC(F)(F)C(/C=C/c1ccc(-n2cncn2)cc1)c1cc(Cl)cc(Cl)c1 (stereo not shown) [DC1, (E)-1-(4-(3-(3,5-Dichlorophenyl)-4,4,4-trifluorobut-1-en-1-yl)phenyl)-1H-1,2,4-triazole] | A (50-100) |
| FC(F)(F)C(/C=C/c1ccc(-n2cncn2)cc1)c1ccccc1 (stereo not shown) [DC3] | B (More than 0-Less than 50) |
| FC(F)(F)C(/C=C/c1ccc(-n2cncn2)cc1)c1ccc(Cl)cc1 (stereo not shown) [DC4] | A (50-100) |
| Fc1ccc(C(/C=C/c2ccc(-n3cncn3)cc2)C(F)(F)F)cc1 (stereo not shown) [DC7] | A (50-100) |
| Fc1cc(F)cc(C(/C=C/c2ccc(-n3cncn3)cc2)C(F)(F)F)c1 (stereo not shown) [DC8] | A (50-100) |
| Cc1cc(C)cc(C(/C=C/c2ccc(-n3cncn3)cc2)C(F)(F)F)c1 (stereo not shown) [DC11] | A (50-100) |
| FC(F)(F)C(/C=C/c1ccc(-n2cncn2)cc1)c1ccc(Cl)c(Cl)c1 (stereo not shown) [DC12] | A (50-100) |
| FC(F)(F)c1cc(C(/C=C/c2ccc(-n3cncn3)cc2)C(F)(F)F)cc(C(F)(F)F)c1 (stereo not shown) [DC16] | A (50-100) |
